Assay results: paper PMC8179567, “Target-templated de novo design of macrocyclic D-/L-peptides: discovery of drug-like inhibitors of PD-1” (Chemical Science, 2021)
Square brackets hold non-standard residues; d marks the D form. Peptide text beside a SMILES is read from it.

Legend:
[1] = target: T1, extracellular domain of human PD-1 (Homo sapiens, UniProt Q15116, C93S); experiment: Surface plasmon resonance (SPR), PD-1 immobilised on CM5 chip; assay type: binding; settings: analytes injected at 10, 100 and 1000 µM in PBS, 25 °C, PBS-T pH 7.4, reference channel subtracted; KD not calculable (fast kinetics, no saturation)
T1 construct: ectodomain of human PD-1 (aa 33- 150) was cloned into pET-24d; made in house
Text: Seven de novo designed cyclic peptides were in total selected for experimental characterization (PD-i1-7). To this end, peptide chains were elongated on a Wang-linker modified polystyrene resin (anchoring through the Asp side-chain carboxylic acid). This chemical strategy enabled the head-to-tail cyclisation to be readily performed on-resin, and a final deprotection/cleavage step yielded the already cyclized final peptide (Scheme S1 ^†). To test for their bioactivity, the extracellular domain of human PD-1 was recombinantly expressed in E. coli and refolded from inclusion bodies. The purified protein was then immobilized by free amine coupling on a CM5 sensor chip surface, and surface plasmon resonance (SPR) measurements were performed. […] In particular, we selected microscale thermophoresis (MST) as it has been validated with this system[30] and allows the quantification of interactions in solution, which mimics physiological conditions. To this end, PD-1 was first fluorescently labelled and then titrated with increasing amounts of PD-i3 and PD-i6. […] Mutation of L-Trp, which serves as PD-1 anchor for the in silico design process, largely abolished binding to the target (Fig. S9A ^†). […]

[2] = target: T2, 15N-labelled PD-1 extracellular domain (Homo sapiens, UniProt Q15116, C93S); experiment: 1H,15N HSQC NMR mapping of interaction site; assay type: binding; settings: 15N-PD-1 60 µM, peptide 1 mM, 25 °C, pH 6.4; I/Io > 20% considered significant; residues adjacent to the CC′ loop
T2 construct: ectodomain of human PD-1 (aa 33- 150) was cloned into pET-24d; made in house
Protocol: To further elucidate the interaction site of PD-i3 and PD-i6, we expressed the extracellular domain of PD-1 uniformly labelled in ^15N and performed high-resolution NMR spectroscopy assays.
Microscale thermophoresis (MST)
MST was used to calculate the binding affinities in solution of PD-i3 and PD-i 6 for the extracellular domain of human PD-1. To this end, PD-1 was fluorescently labelled by reaction of the Lys side chains with Alexa-647-NHS (6 eq) for 3 h at 4 °C. The labelled protein was purified by size-exclusion chromatography and was diluted in PBS-T buffer (0.05% Tween 20, pH 7.4) to a final concentration of 10 nM. […]
#BE0193) as positive controls (Figure S). […] A reproducible and negative thermophoresis response was observed, which was baseline-corrected and normalized (ΔFnorm [‰]).The curves were analyzed using a standard Langmuir binding model, from which dissociations constants (K D) were determined. […]
ITC experiments were performed at 25 °C using a low-volume nano ITC calorimeter (TA instruments). […] Binding isotherms were analysed using the software provided by TA instruments, assuming a single binding site for the independent domains. […]
1H,15N HSQC spectra were recorded at 25 °C on a Bruker 600 MHz spectrometer equipped with a cryoprobe. […]
To assess the solution structures of PD-i3 and PD-i6, NMR spectra were recorded at 5 °C on a Bruker B800 MHz spectrometer equipped with a cryoprobe. […]

T1 sequence (Q15116 33-150 C93S limits assumed): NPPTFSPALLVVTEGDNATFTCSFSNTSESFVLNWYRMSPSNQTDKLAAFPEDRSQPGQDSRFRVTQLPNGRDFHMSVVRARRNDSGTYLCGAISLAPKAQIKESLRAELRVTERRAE
T2 sequence (Q15116 33-150 C93S limits assumed): as above

Row | SMILES | SPR response on PD-1-functionalised channel [1] | Changes in PD-1 HSQC signal intensity on peptide addition [2]
1 | CSCC[C@@H]1NC(=O)[C@H]([C@@H](C)O)NC(=O)[C@H](CC(=O)O)NC(=O)[C@H]2CCCN2C(=O)[C@H](Cc2ccc(O)cc2)NC(=O)[C@H](CCCNC(=N)N)NC(=O)[C@@H](CCCNC(=N)N)NC(=O)[C@@H](CCC(=O)O)NC(=O)[C@H](CC(C)C)NC(=O)[C@H](Cc2ccc(O)cc2)NC1=O [PD-i3] (cyclo(DTMYL[dE][dR]RY[dP])) | distinct concentration-dependent SPR responses | significant changes in signal intensity
2 | CC(C)[C@@H]1NC(=O)[C@@H](Cc2c[nH]c3ccccc23)NC(=O)[C@H](Cc2c[nH]c3ccccc23)NC(=O)[C@H](CC(=O)O)NC(=O)[C@@H](CCCCN)NC(=O)[C@H](C)NC(=O)[C@H](CCC(=O)O)NC(=O)[C@H]2CCCN2C1=O [PD-i6] (cyclo(A[dK]DW[dW]V[dP]E)) | distinct concentration-dependent SPR responses | significant changes in signal intensity
